≈ marks a conversion by molar mass, not a printed value. Where two headings read alike, the source gives them in different places.
Assays:
[1] = design: method as in Luís and Domingues [2021]; details: ref Luís and Domingues [2021]; cited from earlier work
[2] = test system: S. epidermidis; design: method as in Sonboli et al. ([2006]); details: ref Sonboli et al. ([2006]); cited from earlier work
[3] = test system: P. aeruginosa, S. aureus, and K. pneumoniae; design: method as in Amalich et al. [2016]; details: ref Amalich et al. [2016]; cited from earlier work
[4] = molecular target: T1, α-amylase from Bacillus licheniformis (Bacillus licheniformis, UniProt P06278); assay: α-Amylase inhibitory assay (starch/DNS); type: biochemical; details: mean ± SD, triplicate
T1 construct: purchased
T1 sequence (P06278 30-512): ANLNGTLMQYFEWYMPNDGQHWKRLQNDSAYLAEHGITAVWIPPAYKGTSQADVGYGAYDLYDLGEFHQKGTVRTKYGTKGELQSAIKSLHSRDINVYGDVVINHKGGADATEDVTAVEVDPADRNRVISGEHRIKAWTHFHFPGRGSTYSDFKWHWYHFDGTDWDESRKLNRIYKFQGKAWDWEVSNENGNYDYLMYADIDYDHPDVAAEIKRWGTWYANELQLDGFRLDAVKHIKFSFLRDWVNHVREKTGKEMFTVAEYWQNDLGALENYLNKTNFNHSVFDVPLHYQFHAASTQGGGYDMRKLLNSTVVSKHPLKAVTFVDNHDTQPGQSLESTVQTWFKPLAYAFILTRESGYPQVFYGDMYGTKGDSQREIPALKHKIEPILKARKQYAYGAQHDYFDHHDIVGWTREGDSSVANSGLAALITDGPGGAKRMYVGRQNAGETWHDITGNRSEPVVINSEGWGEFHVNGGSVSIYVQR
Method: (§1) The α-glucosidase from Saccharomyces cerevisiae and the α-amylase from Bacillus licheniformis were also obtained from reliable commercial sources. Additional reagents were carefully selected from reputable suppliers. Mueller–Hinton agar was sourced from Biokar in Beauvais, France. All other chemicals used are of analytical grade.
Specifically, 250μL of the sample was mixed with an equal volume of α-amylase (240 U/mL) in a 0.02 M sodium phosphate buffer (SPB) (pH = 6.9). The mixtures were incubated at 37 °C for twenty minutes. Subsequently, 250 µL of a 1% starch solution in a 0.02 M SPB (pH = 6.9) was added to the reaction mixture, and the combination was allowed to sit at 37 °C for 15 min. One milliliter of dinitrosalicylic acid (DNS) was then introduced, and the blend was brought to a boil in a water bath for ten minutes. The reaction mixture was subsequently diluted with 2 mL of distilled water, and the absorbance was measured at 540 nm using an ultraviolet–visible spectrophotometer.

[5] = test system: S. aureus; design: method as in Sonboli et al. ([2006]); details: ref Sonboli et al. ([2006]); cited from earlier work
[6] = test system: E. coli K1; design: method as in Gong et al. [2021]; details: ref Gong et al. [2021], cited from earlier work
[7] = test system: S. maltophilia; design: method as in Baygar ([2019]); details: ref Baygar ([2019]); cited from earlier work
[8] = test system: S. aureus; design: method as in Farhanghi et al. [2022]; details: ref Farhanghi et al. [2022]; cited from earlier work
[9] = molecular target: T2, α-glucosidase from Saccharomyces cerevisiae (Saccharomyces cerevisiae, UniProt P53341); assay: α-Glucosidase inhibitory assay (pNPG); type: biochemical; details: mean ± SD, triplicate
T2 construct: purchased
T2 sequence (P53341 whole entry): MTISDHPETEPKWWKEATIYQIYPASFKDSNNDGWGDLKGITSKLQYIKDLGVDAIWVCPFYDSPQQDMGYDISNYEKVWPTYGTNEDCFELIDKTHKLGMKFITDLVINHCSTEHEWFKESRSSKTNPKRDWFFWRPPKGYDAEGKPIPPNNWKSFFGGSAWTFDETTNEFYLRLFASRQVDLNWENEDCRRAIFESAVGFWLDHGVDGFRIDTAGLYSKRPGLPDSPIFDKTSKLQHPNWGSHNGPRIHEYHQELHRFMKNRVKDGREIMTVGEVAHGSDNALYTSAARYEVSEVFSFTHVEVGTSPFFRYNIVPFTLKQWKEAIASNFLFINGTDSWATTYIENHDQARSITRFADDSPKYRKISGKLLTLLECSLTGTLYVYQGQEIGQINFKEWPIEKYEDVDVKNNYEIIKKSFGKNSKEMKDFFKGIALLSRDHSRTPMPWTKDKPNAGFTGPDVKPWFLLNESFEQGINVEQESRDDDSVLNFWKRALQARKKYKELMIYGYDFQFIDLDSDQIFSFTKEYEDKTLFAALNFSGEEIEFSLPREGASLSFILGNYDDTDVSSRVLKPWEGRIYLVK
Method: as §1
Initially, 200 µL of the samples were mixed with 100 µL of 0.1 M SPB (pH = 6.7) containing 0.1 U/mL of α-glucosidase enzyme. The mixture was then incubated at 37 °C for ten minutes. One milligram of pNPG was dissolved in 0.1 ml of SPB (pH = 6.7). The activity of α-glucosidase was assessed by measuring the absorbance at 405 nm following the addition of 1 mL of 0.1 M Na2CO3 to the reaction mixture.

[10] = test system: Escherichia coli ATCC 25922; assay: MIC and MBC determination, broth microdilution; type: cell-based; details: for MBC: ATCC25922, 24 h, read-out: MBC Escherichia coli
Method: (§2) As mentioned before, the minimum inhibitory concentration (MIC) was established using the broth microdilution method. The minimum sample concentration required to destroy the bacteria is indicated by the minimum bactericidal concentration (MBC). The microdilution method, based on MIC determination, was similarly applied. After 24 h of incubation at 37 °C, […] of sample from each tube showing no apparent growth were inoculated on Tryptone Soja agar (Biokar, Beauvais, France). The MBC was determined as the lowest concentration showing no growth on the culture medium.

[11] = test system: Pseudomonas aeruginosa ATCC 27853; assay: MIC and MBC determination, broth microdilution; type: cell-based; details: for MBC: ATCC27853, 24 h, read-out: MBC Pseudomonas aeruginosa
Method: as §2

[12] = test system: Staphylococcus aureus ATCC 29213; assay: MIC and MBC determination, broth microdilution; type: cell-based; details: for MBC / MIC: Staphylococcus aureus; for MBC: ATCC29213, 24 h; for MIC Staphylococcus aureus: broth microdilution
Method: as §2

[13] = test system: Listeria monocytogenes ATCC 13932; assay: MIC and MBC determination, broth microdilution; type: cell-based; details: for MBC / MIC: Listeria monocytogenes; for MBC: ATCC13932, 24 h; for MIC Listeria monocytogenes: broth microdilution
Method: as §2

[14] = test system: Streptococcus equi subsp. equi; design: method as in Nozohour and Jalilzadeh-amin [2021]; details: ref Nozohour and Jalilzadeh-amin [2021]; cited from earlier work
[15] = molecular target: T3, elastase (Sus scrofa, UniProt P00772); assay: Elastase inhibitory assay; type: biochemical
T3 sequence (P00772 27-266): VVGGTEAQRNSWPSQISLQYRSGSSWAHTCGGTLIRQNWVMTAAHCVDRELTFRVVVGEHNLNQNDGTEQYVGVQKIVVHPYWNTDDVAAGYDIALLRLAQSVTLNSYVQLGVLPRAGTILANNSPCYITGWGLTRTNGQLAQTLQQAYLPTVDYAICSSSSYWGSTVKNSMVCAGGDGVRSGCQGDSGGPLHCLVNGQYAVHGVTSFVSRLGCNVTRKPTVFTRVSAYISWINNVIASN
Method: By adapting certain aspects, the methodology of this research is based on the protocol reported by Jeddi et al. (Jeddi et al. [2023]).
Then, 200 µL of an elastase solution prepared in Tris–HCl buffer (0.2 M, pH 8.0) was mixed with 50 µL of each sample. Following a 15-min incubation at 25 °C, 200 µL of N-succinyl-Ala-Ala-p-nitroanilide solution was added, and the reaction mixtures were homogenized. Absorbances were recorded at 410 nm after an additional 20-min incubation at 25 °C. […] Furthermore, the methodology described in this study should provide a valuable resource for future research assessing the effect of other natural compounds on elastase activity, thereby expanding our understanding of their beneficial properties.

[16] = test system: methicillin resistant Staphylococcus aureus (MRSA); design: method as in Zhao et al. [2023b]; details: ref Zhao et al. [2023b]; cited from earlier work
[17] = molecular target: T3, elastase; design: method as in our previous study; details: ref our previous study, cited from earlier work
[18] = molecular target: tyrosinase (Agaricus bisporus, UniProt C7FF04); design: method as in our previous study; details: ref our previous study; cited from earlier work
Chain of tyrosinase (C7FF04 1-392): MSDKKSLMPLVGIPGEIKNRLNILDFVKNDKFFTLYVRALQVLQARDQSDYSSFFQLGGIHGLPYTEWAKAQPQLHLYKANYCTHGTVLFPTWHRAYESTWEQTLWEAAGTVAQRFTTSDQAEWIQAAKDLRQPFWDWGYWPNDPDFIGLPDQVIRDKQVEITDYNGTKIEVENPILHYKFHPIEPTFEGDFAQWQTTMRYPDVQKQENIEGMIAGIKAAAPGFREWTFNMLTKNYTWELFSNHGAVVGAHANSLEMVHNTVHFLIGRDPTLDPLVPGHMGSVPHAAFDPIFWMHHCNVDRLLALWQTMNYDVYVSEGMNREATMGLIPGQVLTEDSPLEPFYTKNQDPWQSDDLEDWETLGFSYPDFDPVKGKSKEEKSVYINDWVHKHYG

[19] = molecular target: α-glucosidase; design: method as in Omari et al. [2023]; details: ref Omari et al. [2023]; cited from earlier work
[20] = molecular target: α-amylase; design: method as in Omari et al. [2023]; details: ref Omari et al. [2023]; cited from earlier work
[21] = ATCC25922, broth microdilution, read-out: MIC Escherichia coli
[22] = ATCC27853, broth microdilution, read-out: MIC Pseudomonas aeruginosa
[23] = 24 h, 37 °C, read-out: MBC Staphylococcus aureus
[24] = ATCC29213, broth microdilution, read-out: MIC Staphylococcus aureus
[25] = 24 h, 37 °C, read-out: MBC Listeria monocytogenes
[26] = ATCC13932, broth microdilution, read-out: MIC Listeria monocytogenes

For `CC(=O)Oc1ccccc1C(=O)O` [acetylsalicylic acid], the “IC50 inhibition of protein denaturation” value [1] is given as 89.47 ± 2.64 %, v/v.
For `CC(C)=C1CC[C@@H](C)CC1=O` [Pulegone, pulegone], the “activity against S. epidermidis” value [2] is given as 1.8 ± 0.3 mg/mL, the “inhibitory effects on P. aeruginosa, S. aureus, and K. pneumoniae” value [3] is given as 2.80–11.20 µl/mL and the IC50 [4] is given as 1200 µM. For the same compound, the “activity against S. aureus” value [5] was 1.8 ± 0.3 mg/mL, the reduced biofilm formation ([6]; E. coli K1) was 52.36% and the “MBC E. coli K1” value [6] was 47350 µg/mL (≈ 311000 µM). For the same compound, the “MIC E. coli K1” value [6] was 23680 µg/mL (≈ 156000 µM), the “MBC S. maltophilia” value [7] was 5000 µg/mL (≈ 32800 µM) and the “MIC S. maltophilia” value [7] was 2500 µg/mL (≈ 16400 µM). For the same compound, the “inhibition zone S. maltophilia” value [7] was 28 mm, the “MIC S. aureus” value [8] was 5.85 μl/mL and the IC50 [9] was 783 µM. For the same compound, the MBC [10] was 0.5 µg/mL (≈ 3.28 µM), the MIC ([10]; ATCC25922, read-out: MIC Escherichia coli) was 0.25 µg/mL (≈ 1.64 µM) and the MBC [11] was 0.5 µg/mL (≈ 3.28 µM). The MIC ([11]; ATCC27853, read-out: MIC Pseudomonas aeruginosa) was 0.5 µg/mL (≈ 3.28 µM), the “MBC Staphylococcus aureus” value ([12]; 24 h, 37 °C) was 0.25 µg/mL (≈ 1.64 µM) and the MBC ([12]; read-out: MBC Staphylococcus aureus, 24 h, 37 °C) was 0.125 to 0.25 µg/mL (≈ 0.821 to 1.64 µM). For the same compound, the MIC ([12]; ATCC29213, read-out: MIC Staphylococcus aureus, broth microdilution) was 0.125 to 0.25 µg/mL (≈ 0.821 to 1.64 µM), the “MIC Staphylococcus aureus” value [12] was 0.125 µg/mL (≈ 0.821 µM) and the “MBC Listeria monocytogenes” value ([13]; 24 h, 37 °C) was 0.125 µg/mL (≈ 0.821 µM). For the same compound, the MBC ([13]; read-out: MBC Listeria monocytogenes, 24 h, 37 °C) was 0.125 to 0.25 µg/mL (≈ 0.821 to 1.64 µM), the MIC ([13]; ATCC13932, read-out: MIC Listeria monocytogenes, broth microdilution) was 0.125 to 0.25 µg/mL (≈ 0.821 to 1.64 µM) and the “MIC Listeria monocytogenes” value [13] was 0.125 µg/mL (≈ 0.821 µM). For the same compound, the “inhibition zone Streptococcus equi subsp. equi” value [14] was 20 mm and the IC50 [15] was 774 µM.
In the case of `CC(C)[C@@H]1CC[C@@H](C)CC1=O` [Menthone, menthone], the IC50 [4] is listed as 968 µM, the “MBC MRSA” value [16] is listed as 7.1 µg/mL (≈ 46 µM) and the “MIC MRSA” value [16] is listed as 3.5 µg/mL (≈ 22.7 µM). The IC50 [9] was 703 µM, the MBC ([10]; 37 °C) was greater than 2 µg/mL and the MIC [10, 21] was 1 µg/mL (≈ 6.48 µM). The MBC ([11]; 37 °C) was 1 µg/mL (≈ 6.48 µM), the MIC [11, 22] was 0.5 µg/mL (≈ 3.24 µM) and the “MBC Staphylococcus aureus” value ([12]; 24 h, 37 °C) was 0.125 µg/mL (≈ 0.81 µM). For the same compound, the MBC [12, 23] was 0.125 to 0.25 µg/mL (≈ 0.81 to 1.62 µM), the MIC [12, 24] was 0.125 to 0.25 µg/mL (≈ 0.81 to 1.62 µM) and the “MIC Staphylococcus aureus” value [12] was 0.125 µg/mL (≈ 0.81 µM). For the same compound, the “MBC Listeria monocytogenes” value ([13]; 24 h, 37 °C) was 0.25 µg/mL (≈ 1.62 µM), the MBC [13, 25] was 0.125 to 0.25 µg/mL (≈ 0.81 to 1.62 µM) and the MIC [13, 26] was 0.125 to 0.25 µg/mL (≈ 0.81 to 1.62 µM). For the same compound, the “MIC Listeria monocytogenes” value [13] was 0.125 µg/mL (≈ 0.81 µM) and the IC50 [15] was 860 µM.
For `C=C(C)[C@H]1CC=C(C)CC1` [limonene], the IC50 anti-elastase [17] is listed as 91.25 ± 3.06 µg/mL (≈ 670 µM) and the IC50 anti-tyrosinase [18] is listed as 74.24 ± 2.06 µg/mL (≈ 545 µM).
Compound `O=C(N[C@H](CO)[C@H](O)c1ccc([N+](=O)[O-])cc1)C(Cl)Cl` [Chloramphenicol, reference compound] has an MBC ([10]; 37 °C) of 32 µg/mL (≈ 99 µM), an MIC [10, 21] of 8 µg/mL (≈ 24.8 µM) and an MBC ([11]; 37 °C) of 64 µg/mL (≈ 198 µM). The MIC [11, 22] was 64 µg/mL (≈ 198 µM), the MBC [12, 23] was 32 µg/mL (≈ 99 µM) and the MIC [12, 24] was 8 µg/mL (≈ 24.8 µM). The MBC [13, 25] was 32 µg/mL (≈ 99 µM) and the MIC [13, 26] was 16 µg/mL (≈ 49.5 µM).
For `CC1=CCC2CC1C2(C)C` (stereo not drawn) [α-pinene], the “IC50 α-glucosidase” value [19] is listed as 95.62 ± 4.11 µg/mL (≈ 702 µM), the IC50 ([17]; read-out: IC50 anti-elastase (converted)) is listed as 471 µM and the “IC50 α-amylase” value [20] is listed as 82.12 ± 4.52 µg/mL (≈ 603 µM).
In the case of `CC12CCC(CC1)C(C)(C)O2` [eucalyptol, reference compound], the “MIC S. aureus” value [8] is listed as 23.43 μl/mL.

Reference: article PMC12259508, “Expediting multiple biological properties of main bioactive compounds of Mentha pulegium L” (AMB Express, 2025)
